For this assay, the system named is CCRF-CEM/VCR-1000. Put plainly: In vitro multi drug resistance (MDR) reversal inhibitory activity against CCRF-CEM/VCR-1000 cell line. In kind it is functional, cell-based. The settings on record: Homo sapiens.
For the compound `OC(COc1ccccc1C(O)CCc1ccccc1)CN1CCOCC1` (stereo not given), the IC50 turned out to be 9540 nM.

For the compound `CCC(=O)c1ccccc1OCC(O)CN1CCCCC1` (stereo not given), the IC50 came to 6840 nM.

In the case of `CC(=O)c1cccc(OCC(O)CN2CCN(c3ccc(F)cc3)CC2)c1` (stereo not given), the IC50 amounted to 11400 nM.

For the compound `O=C(CCc1ccccc1)c1cc(O)ccc1OCC(O)CN1CCCCC1` (stereo not given), the concentration for half-maximal inhibition (IC50) stood at 2300 nM.

For `COC(CCc1ccccc1)c1ccccc1OCC(O)CN1CCN(c2ccc(F)cc2)CC1` (stereo not given), the IC50 was 230 nM.

Turning to `O=C(CCc1ccccc1)c1ccccc1OCC(O)CN1CCN(c2ccc(F)cc2)CC1` (stereo not given), the IC50 was 140 nM.

As to `CCCNCC(O)c1oc2ccccc2c1CC` (stereo not given), the IC50 was determined as 439000 nM.

Take `O=C(CCc1ccccc1)c1cc(OCc2ccccc2)ccc1OCC(O)CN1CCCCC1` (stereo not given): the IC50 is 170 nM.

For `O=C(CCc1ccccc1)c1ccccc1OCC(O)CNC(c1ccccc1)c1ccccc1` (stereo not given), the IC50 came to 1020 nM.

In the case of `O=C(CCc1ccccc1)c1ccccc1OCC(O)CNCC(c1ccccc1)c1ccccc1` (stereo not given), the IC50 is 90 nM.

Take `O=C(CCc1cccc2ccccc12)c1ccccc1OCC(O)CN1CCCCC1` (stereo not given): the IC50 is 170 nM.

Take `OC(COc1ccccc1C(O)CCc1ccccc1)CN1CCCCC1` (stereo not given): the IC50 stood at 1340 nM.

As for `COC(=O)c1ccc(NCC(O)COc2ccccc2C(=O)CCc2ccccc2)cc1` (stereo not given), the IC50 stood at 2530 nM.

Consider `OC(COc1ccccc1C(O)CCc1ccccc1)CN1CCN(c2ccc(F)cc2)CC1` (stereo not given), for which the IC50 was found to be 670 nM.

For the compound `O=C(CCc1ccccc1)c1cc(OCc2ccccc2)ccc1OCC(O)CN1CCN(Cc2ccccc2)CC1` (stereo not given), the IC50 amounted to 120 nM.

Regarding `O=C(CCc1ccccc1)c1cccc(OCC(O)CN2CCN(c3ccc(F)cc3)CC2)c1` (stereo not given), the IC50 was 1120 nM.

Regarding `O=C(CCc1ccccc1)c1ccc(OCC(O)CN2CCN(c3ccc(F)cc3)CC2)cc1` (stereo not given), the IC50 is 2530 nM.

As to `COc1ccccc1N1CCN(CC(O)c2oc3ccccc3c2CCc2ccccc2)CC1` (stereo not given), the IC50 worked out at 880 nM.

Regarding `O=C(CCc1ccccc1)c1ccccc1OCC(O)CN1CCOCC1` (stereo not given), the half-maximal inhibitory concentration (IC50) amounted to 3750 nM.

For the compound `O=C(CCc1ccccc1)c1ccccc1OCC(O)CN1CCN(Cc2ccccc2)CC1` (stereo not given), the IC50 is 380 nM.

Consider `CC(C)N(CC(O)COc1ccccc1C(=O)CCc1cccc2ccccc12)C(C)C` (stereo not given), for which the 50% inhibitory concentration (IC50) turned out to be 540 nM.

As for `COC(CCc1ccccc1)c1ccccc1OCC(O)CN(C(C)C)C(C)C` (stereo not given), the IC50 was 660 nM.

Regarding `CCCNCC(O)c1oc2ccccc2c1CCc1ccccc1` (stereo not given), the IC50 was determined as 58100 nM.

`CN(C)CC(O)COc1ccccc1C(=O)CCc1ccccc1` (stereo not given): the IC50 was found to be 2640 nM.

For the compound `O=C(CCc1ccccc1)c1ccccc1OCC(O)CNc1ccccc1` (stereo not given), the IC50 stood at 6470 nM.

For `CC(=O)c1ccc(OCC(O)CN2CCOCC2)cc1` (stereo not given), the IC50 is 302000 nM.

In the case of `CCC(=O)c1ccccc1OCC(O)CN1CCOCC1` (stereo not given), the half-maximal inhibitory concentration (IC50) was found to be 207000 nM.

`CC(C)NCCc1oc2ccccc2c1CCc1ccccc1`: the IC50 worked out at 20200 nM.

Consider `O=C(CCc1ccccc1)c1cccc(OCC(O)CN2CCCCC2)c1` (stereo not given), for which the IC50 was determined as 390 nM.

Turning to `CC(C)N(CC(O)COc1ccc(C(=O)CCc2ccccc2)cc1)C(C)C` (stereo not given), the IC50 was determined as 920 nM.

With `CC(C)N(CC(O)COc1ccccc1C(O)CCc1ccccc1)C(C)C` (stereo not given), the IC50 is 1740 nM.

Regarding `O=C(CCc1ccccc1)c1ccccc1OCC(O)CNCCC(c1ccccc1)c1ccccc1` (stereo not given), the IC50 is 720 nM.

In the case of `O=C(CCc1ccccc1)c1ccc(OCC(O)CN2CCCCC2)cc1` (stereo not given), the IC50 amounted to 1360 nM.

For the compound `COC(CCc1ccccc1)c1ccccc1OCC(O)CNCCC(c1ccccc1)c1ccccc1` (stereo not given), the IC50 turned out to be 750 nM.

As for `CC(=O)c1cccc(OCC(O)CN2CCCCC2)c1` (stereo not given), the IC50 is 9070 nM.

Turning to `O=C(CCc1cccc2ccccc12)c1ccccc1OCC(O)CNCCC(c1ccccc1)c1ccccc1` (stereo not given), the IC50 worked out at 720 nM.

With `O=C(CCc1ccccc1)c1cc(O)ccc1OCC(O)CN1CCN(Cc2ccccc2)CC1` (stereo not given), the IC50 amounted to 530 nM.

Regarding `Cc1ccccc1N1CCN(CC(O)COc2ccccc2C(=O)CCc2ccccc2)CC1` (stereo not given), the IC50 was found to be 50 nM.

In the case of `CCN(CC)CC(O)COc1ccccc1C(=O)CCc1ccccc1` (stereo not given), the IC50 was 910 nM.

Take `CCC(=O)c1ccccc1OCC(O)CN1CCC(O)(c2ccccc2)CC1` (stereo not given): the IC50 was determined as 300 nM.

Turning to `O=C(CCc1ccccc1)c1ccccc1OCC(O)CN1CCN(c2ccccc2)CC1` (stereo not given), the IC50 was found to be 210 nM.

`O=C(CCc1ccccc1)c1ccccc1OCC(O)CN1CCCCC1` (stereo not given): the IC50 was 680 nM.

As to `O=C(CCc1cccc2ccccc12)c1ccccc1OCC(O)CN1CCOCC1` (stereo not given), the IC50 came out at 680 nM.

On to `O=C(c1ccccc1)c1ccccc1OCC(O)CN1CCN(c2ccc(F)cc2)CC1` (stereo not given), for which the IC50 came out at 420 nM.

On to `O=C(CCc1ccccc1)c1ccccc1OCC(O)CNC1CCCCC1` (stereo not given), for which the IC50 was determined as 340 nM.

As for `COC(CCc1ccccc1)c1ccccc1OCC(O)CN1CCOCC1` (stereo not given), the IC50 came out at 1800 nM.

On to `CCCN(C)CC(O)COc1ccccc1C(=O)CCc1ccccc1` (stereo not given), for which the IC50 came out at 490 nM.

Consider `COc1cccc(N2CCN(CC(O)COc3ccccc3C(=O)CCc3ccccc3)CC2)c1` (stereo not given), for which the IC50 amounted to 120 nM.

Turning to `O=C(CCc1ccccc1)c1ccccc1OCC(O)CN1CCC(O)(c2ccccc2)CC1` (stereo not given), the IC50 stood at 70 nM.

As for `O=C(CCc1ccccc1)c1ccc(OCC(O)CN2CCOCC2)cc1` (stereo not given), the IC50 came out at 6860 nM.

As to `CCCNCC(O)COc1ccc(OCc2ccccc2)cc1C(=O)CCc1ccccc1` (stereo not given), the IC50 worked out at 110 nM.

Consider `COc1ccc(N2CCN(CC(O)COc3ccccc3C(=O)CCc3ccccc3)CC2)cc1` (stereo not given), for which the IC50 was found to be 180 nM.

Consider `COc1ccccc1N1CCN(CC(=O)c2oc3ccccc3c2CCc2ccccc2)CC1`, for which the IC50 is 16600 nM.

On to `CCCNCCc1oc2ccccc2c1CCc1ccccc1`, for which the IC50 is 8560 nM.

In the case of `CC(=O)c1ccc(OCC(O)CN2CCN(c3ccc(F)cc3)CC2)cc1` (stereo not given), the IC50 was determined as 11900 nM.

For `O=C(CCc1ccccc1)c1ccccc1OCC(O)CNCc1ccccc1` (stereo not given), the 50% inhibitory concentration (IC50) was found to be 760 nM.

On to `CC(=O)c1ccc(OCC(O)CN2CCCCC2)cc1` (stereo not given), for which the IC50 came out at 75900 nM.

As to `CC(=O)c1ccccc1OCC(O)CN1CCC(O)(c2ccccc2)CC1` (stereo not given), the IC50 turned out to be 2830 nM.

On to `CC(C)N(CC(O)COc1ccc(OCc2ccccc2)cc1C(=O)CCc1ccccc1)C(C)C` (stereo not given), for which the IC50 amounted to 80 nM.

For `CC(=O)c1ccccc1OCC(O)CN1CCN(c2ccc(F)cc2)CC1` (stereo not given), the IC50 is 3840 nM.

With `CC(C)N(CC(O)COc1ccc(O)cc1C(=O)CCc1ccccc1)C(C)C` (stereo not given), the IC50 was 1040 nM.

For the compound `O=C(CCc1cccc2ccccc12)c1ccccc1OCC(O)CN1CCC(O)(c2ccccc2)CC1` (stereo not given), the IC50 worked out at 70 nM.

As for `CC(C)N(CC(O)COc1ccccc1C(=O)CCc1ccccc1)C(C)C` (stereo not given), the IC50 worked out at 310 nM.

Regarding `O=C(c1ccccc1)c1ccccc1OCC(O)CN1CCC(O)(c2ccccc2)CC1` (stereo not given), the half-inhibitory concentration (IC50) came to 190 nM.

For `CCCNCC(O)COc1ccccc1C(=O)CCc1ccccc1` (stereo not given) [PROPAFENONE], the IC50 was determined as 1080 nM.

As for `CCCNCC(O)COc1ccc(O)cc1C(=O)CCc1ccccc1` (stereo not given) [5-HYDROXY PROPAFENONE], the IC50 was determined as 3020 nM.

As for `CC(=O)c1cccc(OCC(O)CN2CCOCC2)c1` (stereo not given), the IC50 came out at 118000 nM.

Take `O=C(CCc1ccccc1)c1ccccc1OCC(O)CN1CCCC1` (stereo not given): the concentration for half-maximal inhibition (IC50) amounted to 1820 nM.

As for `COC(CCc1ccccc1)c1ccccc1OCC(O)CN1CCCCC1` (stereo not given), the IC50 is 770 nM.

Consider `COc1ccccc1N1CCN(CC(O)COc2ccccc2C(=O)CCc2ccccc2)CC1` (stereo not given), for which the IC50 is 110 nM.

A word on the IC50: it is the concentration that inhibits the measured activity by half.

Source of the values: ChEMBL document CHEMBL1145893, “Three-dimensional quantitative structure-activity relationship analysis of propafenone-type multidrug resistance modulators: influence of variable selection on test set predictivity” (J Med Chem, 2003).
